Like-named read-outs stand apart in the source and are kept apart here. Each block holds one compound with its values, some of them ahead of it.
Target: Nav 1.7 (Homo sapiens (Human), UniProt Q15858)
Assay: in-vitro Nav 1.7 PX (IC50)
Type: cell-based

Nav 1.7, sequence (Q15858 whole entry): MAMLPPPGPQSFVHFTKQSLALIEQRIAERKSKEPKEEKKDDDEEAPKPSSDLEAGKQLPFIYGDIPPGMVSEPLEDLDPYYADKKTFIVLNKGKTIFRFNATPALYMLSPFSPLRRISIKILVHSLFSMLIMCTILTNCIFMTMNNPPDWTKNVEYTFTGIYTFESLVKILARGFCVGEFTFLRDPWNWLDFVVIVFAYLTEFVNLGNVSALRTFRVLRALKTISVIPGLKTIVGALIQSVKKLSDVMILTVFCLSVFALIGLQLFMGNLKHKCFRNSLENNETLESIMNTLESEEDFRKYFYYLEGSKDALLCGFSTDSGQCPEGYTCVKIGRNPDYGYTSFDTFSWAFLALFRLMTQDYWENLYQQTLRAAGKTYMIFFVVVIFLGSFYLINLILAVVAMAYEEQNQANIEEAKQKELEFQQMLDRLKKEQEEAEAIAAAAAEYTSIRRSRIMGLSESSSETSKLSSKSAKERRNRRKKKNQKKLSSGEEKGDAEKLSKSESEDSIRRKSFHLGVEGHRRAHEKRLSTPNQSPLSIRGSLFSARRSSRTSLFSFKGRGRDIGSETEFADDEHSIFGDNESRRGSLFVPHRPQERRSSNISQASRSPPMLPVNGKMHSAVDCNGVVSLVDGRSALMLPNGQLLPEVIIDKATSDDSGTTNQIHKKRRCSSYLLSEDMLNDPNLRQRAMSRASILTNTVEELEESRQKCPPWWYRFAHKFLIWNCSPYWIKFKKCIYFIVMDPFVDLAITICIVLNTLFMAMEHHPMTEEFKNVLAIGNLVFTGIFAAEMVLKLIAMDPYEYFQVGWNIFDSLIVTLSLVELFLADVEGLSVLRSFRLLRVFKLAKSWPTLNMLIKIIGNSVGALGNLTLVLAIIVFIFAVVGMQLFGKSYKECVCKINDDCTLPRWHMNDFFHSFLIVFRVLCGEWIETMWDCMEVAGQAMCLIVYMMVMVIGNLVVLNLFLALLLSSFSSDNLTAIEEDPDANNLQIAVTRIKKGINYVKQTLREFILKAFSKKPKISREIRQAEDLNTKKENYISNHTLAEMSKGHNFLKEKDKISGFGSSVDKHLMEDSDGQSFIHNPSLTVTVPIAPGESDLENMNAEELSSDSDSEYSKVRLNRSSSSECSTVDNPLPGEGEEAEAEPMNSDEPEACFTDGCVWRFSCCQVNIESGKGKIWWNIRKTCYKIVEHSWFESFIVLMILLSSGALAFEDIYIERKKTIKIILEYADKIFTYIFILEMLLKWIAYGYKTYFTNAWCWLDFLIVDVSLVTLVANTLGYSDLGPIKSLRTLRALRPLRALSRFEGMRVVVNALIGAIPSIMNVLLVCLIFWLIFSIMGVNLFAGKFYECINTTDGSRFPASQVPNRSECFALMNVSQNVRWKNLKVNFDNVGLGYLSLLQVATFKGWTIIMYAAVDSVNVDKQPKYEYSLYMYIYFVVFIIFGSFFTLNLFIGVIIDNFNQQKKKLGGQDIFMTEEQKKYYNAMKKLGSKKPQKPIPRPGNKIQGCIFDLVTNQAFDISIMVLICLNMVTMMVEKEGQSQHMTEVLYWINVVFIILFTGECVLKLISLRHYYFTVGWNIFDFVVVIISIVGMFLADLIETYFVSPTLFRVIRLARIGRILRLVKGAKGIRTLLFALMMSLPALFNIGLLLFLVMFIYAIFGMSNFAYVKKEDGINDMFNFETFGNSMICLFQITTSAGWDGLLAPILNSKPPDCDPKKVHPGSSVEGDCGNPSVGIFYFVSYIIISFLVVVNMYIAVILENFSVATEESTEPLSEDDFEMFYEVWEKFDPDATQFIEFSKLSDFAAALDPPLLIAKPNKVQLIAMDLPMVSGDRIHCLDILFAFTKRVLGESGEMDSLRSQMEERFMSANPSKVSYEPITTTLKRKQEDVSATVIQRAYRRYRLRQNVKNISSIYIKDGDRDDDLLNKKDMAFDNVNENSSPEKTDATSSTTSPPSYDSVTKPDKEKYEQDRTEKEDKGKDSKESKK

- IC50 (in-vitro PatchXpress (PX)): 2 µM
SMILES: COc1cc(-c2cc(Cl)cc(C#N)c2)c(F)cc1-n1c(=O)ccc2cc(S(=O)(=O)Nc3ccon3)ccc21 (atropisomer, axis not shown; (P)) [Example 518, (P)-1-(3′-chloro-5′-cyano-2-fluoro-5-methoxy-4-biphenylyl)-N-3-isoxazolyl-2-oxo-1,2-dihydro-6-quinolinesulfonamide]

- IC50: 0.01 µM
SMILES: COc1cc(-c2cc(F)cc(Cl)c2)c(C#N)cc1-n1c(=O)ccc2cc(S(=O)(=O)Nc3ccon3)ccc21 (atropisomer, axis not shown; (P)) [Example 433, (P)-1-(3′-chloro-2-cyano-5′-fluoro-5-methoxy-4-biphenylyl)-N-3-isoxazolyl-2-oxo-1,2-dihydro-6-quinolinesulfonamide]

- IC50: 0.035 µM
SMILES: COc1cc(C#CC2(F)CCCC2)c(F)cc1-n1c(=O)ccc2cc(S(=O)(=O)Nc3ccon3)ccc21 (atropisomer, axis not shown; (P)) [Example 1153, (P)-1-(5-fluoro-4-((1-fluorocyclopentyl)ethynyl)-2-methoxyphenyl)-N-3-isoxazolyl-2-oxo-1,2-dihydro-6-quinolinesulfonamide]

- IC50: 1.84 µM
SMILES: COc1cc(-c2cc(F)cc(Cl)c2)c(C#N)cc1-n1c(=O)ccc2cc(S(=O)(=O)Nc3ccon3)ccc21 (atropisomer, axis not shown; (M)) [Example 434, (M)-1-(3′-chloro-2-cyano-5′-fluoro-5-methoxy-4-biphenylyl)-N-3-isoxazolyl-2-oxo-1,2-dihydro-6-quinolinesulfonamide]

- IC50 (in-vitro Nav 1.7 PX data): 0.048 µM
SMILES: COc1cc(C#CC2CCCC2)c(F)cc1-n1c(=O)ccc2cc(S(=O)(=O)Nc3ncco3)ccc21 [Example 1136, 1-(4-(cyclopentylethynyl)-5-fluoro-2-methoxyphenyl)-N-1,3-oxazol-2-yl-2-oxo-1,2-dihydro-6-quinolinesulfonamide]

More lines, now with the values behind:

SMILES: COc1cc(F)cc(-c2cc(OC)c(-n3c(=O)ccc4cc(S(=O)(=O)Nc5ncccn5)ccc43)cc2C)c1 [Example 957, 1-(3′-fluoro-5,5′-dimethoxy-2-methyl-4-biphenylyl)-2-oxo-N-2-pyrimidinyl-1,2-dihydro-6-quinolinesulfonamide]
- IC50 (in-vitro Nav 1.7 PX data): 0.023 µM

SMILES: COc1cc(-c2ccc(C)c(Cl)c2)ccc1-n1c(=O)ccc2cc(S(=O)(=O)Nc3ccon3)ccc21 (atropisomer, axis not shown; (P)) [Example 587, (P)-1-(3′-chloro-3-methoxy-4′-methyl-4-biphenylyl)-N-3-isoxazolyl-2-oxo-1,2-dihydro-6-quinolinesulfonamide]
- IC50: 0.02 µM

SMILES: COc1cc(-c2ccc(Cl)cc2)c(F)cc1-n1c(=O)ccc2cc(S(=O)(=O)Nc3ccon3)ccc21 [634/675, 1-(4′-chloro-2-fluoro-5-methoxy-4-biphenylyl)-N-3-isoxazolyl-2-oxo-1,2-dihydro-6-quinolinesulfonamide]
- IC50 (in-vitro Nav 1.7 PX data): 0.013 µM

SMILES: COc1cc(Br)ccc1-n1c(=O)ccc2cc(S(=O)(=O)Nc3cccnn3)ccc21 [Example 1050, 1-(4-bromo-2-methoxyphenyl)-2-oxo-N-3-pyridazinyl-1,2-dihydro-6-quinolinesulfonamide]
- IC50 (in-vitro Nav 1.7 PX data (PatchXpress)): 1.43 µM

SMILES: COc1cc(-c2cccc(OC(C)C)c2)ccc1-n1c(=O)ccc2cc(S(=O)(=O)Nc3nccc(C)n3)ccc21 (atropisomer, axis not shown; (P)) [Example 1206, (P)-1-(3-methoxy-3′-(1-methylethoxy)-4-biphenylyl)-N-(4-methyl-2-pyrimidinyl)-2-oxo-1,2-dihydro-6-quinolinesulfonamide]
- IC50: 0.59 µM

SMILES: COc1cc(-c2ccc(F)c(Cl)c2)ccc1-n1c(=O)ccc2cc(S(=O)(=O)Nc3ccon3)ccc21 (atropisomer, axis not shown; (M)) [Example 577, (M)-1-(3′-chloro-4′-fluoro-3-methoxy-4-biphenylyl)-N-3-isoxazolyl-2-oxo-1,2-dihydro-6-quinolinesulfonamide]
- IC50: 7.13 µM
